Where two headings read alike, the source gives them in different places.
Key:
[1] = pKa by titration with NaOH; assay type: physicochemical
Description: The pKa may be measured by titrating the compound with NaOH and finding the point at which half of the compound is neutralized. The pH at this point is the pKa.

[2] = first order rate constant for penetration through living rabbit cornea; assay type: in vivo
Protocol: Still another critical property of the inhibitor compounds employed in this invention is that the compound must have a first order rate constant for penetration of the compound through a living rabbit cornea of at least 0.005 hr^-1. This property is important in that it sets a standard for a speed in which the inhibitor will pass through the cornea to the interior of the eye and be available to inhibit the activity of carbonic anhydrase in that location. This is measured by placing a solution of the compound (about 0.5 ml) on the cornea of the living, lightly anesthetized rabbit. The lids are held by light hemostats in such a way as to create a well to hold the solution so that a steady state concentration is achieved. At timed intervals, samples are withdrawn from the anterior chamber of the rabbit and the fluid analyzed for the concentration of drug. The analyses are done by the method of Maren, supra. The data are treated to yield the first order rate constants which are cited herein.

stability in solution = assay type: physicochemical
Description: The final property which is necessary for a compound used in this invention is that it be stable against decomposition in solution and in contact with the cornea. This property may be tested by dissolving the compound in aqueous solution and in solution containing corneal tissue to determine whether the compound has remained stable or has decomposed into other materials.

[3] = topical administration of prior art inhibitors, intraocular pressure; assay type: in vivo
solubility in water = settings: for ability to form an aqueous solution of sufficient concentration for topical use: near neutral pH
[4] = ether partition coefficient at pH 7.2; assay type: physicochemical
Protocol: This property in conjunction with the chloroform coefficient is a measure of the lipid solubility of this compound. This is a critical feature since the compound must be readily absorbed by the lipid materials in the eye and be available for intimate contact with carbonic anhydrase so as to control its activity. This property is measured by preparing an aqueous solution of the compound at pH 7.2 and shaking the solution with an equal volume of ether until equilibrium is achieved in the system. An ether layer and an aqueous layer are formed, separated, and each analyzed for its content of the compound. The coefficient is the ratio of the amount of the compound in the ether layer to the amount of the compound in the aqueous layer. See, e.g., Maren, J. Pharm. […] Therap. Vol. 130, p.

[5] = chloroform partition coefficient at pH 7.2; assay type: physicochemical
Protocol: Another critical property necessary in the inhibitors employed in this invention is the chloroform partition coefficient which must be at least 0.01. This property also relates to the lipid solubility of the compound employed and it is measured as described above with respect to ether. The procedure is the same as that described above except that chloroform is employed in place of ether.

injury to the cornea = assay type: in vivo; settings: 2-5% solution
Description: Still another critical property of the compounds employed in this invention is that they be pharmaceutically acceptable and not be injurious to the cornea being treated.

carbonic anhydrase = carbonic anhydrase (Homo sapiens, UniProt P00918); experiment: dissociation constant against carbonic anhydrase; assay type: biochemical
Description: The dissociation constant is the concentration of the compound that will inhibit one-half of the carbonic anhydrase in a test system wherein the conditions are so arranged that the compound is present in excess of the carbonic anydrase.

[6] = Foss 1955; cited from earlier work

Structure (SMILES) | pKa ([1]; read-out: pKa) | in vivo rabbit cornea penetration rate constant [2] [h⁻¹] | stability in solution (stability in solution) | pKa [1] | reduction of intraocular pressure by topical application [3] | ether partition coefficient [4] | chloroform partition coefficient [5] | injury or clouding of the cornea (injury to the cornea) | ability to form an aqueous solution of sufficient concentration for topical use (solubility in water) | further results
NS(=O)(=O)c1nnc(-c2ccccc2Cl)s1 [2-orthochlorophenylthiadiazole-5-sulfonamide] | 7.3 | 0.3 | stable in solution |  |  |  |  |  |  | 
CCOc1ccc2nc(S(N)(=O)=O)sc2c1 [ethoxzolamide, 6-ethoxy-benzothiazole-2-sulfonamide] |  |  |  | 8.1 | ineffective |  |  |  |  | solubility (solubility in water; water): ≤ 40 µg/mL
Cn1nc(S(N)(=O)=O)sc1=NC(=O)C(F)(F)F [trifluoromethazolamide, 2-trifluoroacetylimino-3-methyl-Δ^2-1,3,4-thiadiazoline-5-sulfonamide] |  | 0.014 | stable in solution for two hours | 6.6 |  | 6.0 | 0.3 | does not injure or cloud the cornea |  | 
Cn1nc(S(N)(=O)=O)sc1=NC(=O)C(Cl)(Cl)Cl [trichloromethazolamide, 2-trichloroacetylimino-3-methyl-Δ^2-1,3,4-thiadiazoline-5-sulfonamide] | 7 | 0.063 | stable in solution for at least six hours |  |  | 56 | 4 | does not injure or cloud the cornea |  | Ki (carbonic anhydrase): 20 nM
CC(=O)/N=c1/sc(S(N)(=O)=O)nn1C [Methazolamide, 2-acetylimino-3-methyl-Δ^2-1,3,4-thiadiazoline-5-sulfonamide] |  |  |  | 7.4 | not reduced except to a very slight extent in one of the series of tests |  |  |  | cannot be made into a neutral solution with a sufficiently high concentration | 
CC(=O)Nc1nnc(S(N)(=O)=O)s1 [acetazolamide, 2-acetylamino-1,3,4-thiadiazole-5-sulfonamide] |  |  |  |  |  |  |  |  | cannot be made into a water solution below pH 8 at concentrations sufficiently high | lowering intraocular pressure by topical administration [6]: completely unsuitable

From US4619939A, “Process for reducing intraocular pressure” (priority 1985, dated 1986)
